Where a SMILES comes first, the peptide text is derived from it. [ ]: non-standard residue; d: D form. NMePhe(4-NO2) = CN[C@@H](Cc1ccc([N+](=O)[O-])cc1)C(=O)O; dPhe(4-Cl) = N[C@H](Cc1ccc(Cl)cc1)C(=O)O; d2Nal = N[C@H](Cc1ccc2ccccc2c1)C(=O)O; dCit = NC(=O)NCCC[C@@H](N)C(=O)O; d3Pal = N[C@H](Cc1cccnc1)C(=O)O
Target: T1, LHRH (Rattus norvegicus, UniProt P30969)
T1 construct: endogenous in cells
T1 sequence (P30969 1-327): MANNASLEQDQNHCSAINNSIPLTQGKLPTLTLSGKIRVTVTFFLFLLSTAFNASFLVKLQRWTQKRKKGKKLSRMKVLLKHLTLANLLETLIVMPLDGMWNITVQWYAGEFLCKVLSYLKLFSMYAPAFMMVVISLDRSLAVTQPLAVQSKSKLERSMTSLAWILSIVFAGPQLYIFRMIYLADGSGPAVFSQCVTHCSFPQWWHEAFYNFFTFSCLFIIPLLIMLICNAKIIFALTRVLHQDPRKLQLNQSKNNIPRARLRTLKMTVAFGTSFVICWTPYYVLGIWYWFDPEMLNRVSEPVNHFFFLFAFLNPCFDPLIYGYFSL
Assay: in vitro test for LHRH antagonist potency (pA2) against the agonist leuprolide
Type: cell-based
Details: negative logarithm of the concentration of antagonist which shifts the response curve produced by the agonist leuprolide to two-fold higher concentration
Description: Representative compounds of the present invention were evaluated in in vitro tests for receptor binding (pKI) and for LHRH antagonist potency (pA2). The tests employed the methods detailed in F. Haviv, et al. J. Med. Chem, 32: 2340-2344 (1989). The receptor binding affinities (pKI) are the negative logarithms of the equilibrium dissociation constants, and the values of pA2 are the negative logarithms of the concentration of antagonist which shift the response curve produced by the agonist leuprolide to two-fold higher concentration. (Leuprolide is the LHRH agonist having the structure 5-ox--Pro^1 --His^2 --Trp^3 --Ser^4 -- Tyr^5 --D--Leu^6 --Leu^7 --Arg^8 --Pro^9 --NHEt and is disclosed and claimed in U.S. Pat. No. 4,005,063.) Typically pA2 values of 9.5 or greater are indicative of good LHRH antagonist potency.

Row | Compound | pA2 | Kb [pM]
1 | NAc--D2Nal--D4ClPhe--D3Pal--Ser--NMe(4-Atza)Phe--DLyS(Nic)--Leu--Lys(Isp)-- ProDAlaNH2 [Example 3] | 11.22 | –
2 | NAc--D-2Nal--D-4ClPhe--D-3Pal--Ser--NMe--(4-Atza)Phe--D--(4-Atza)Phe--Leu --Lys(Isp)--Pro--D--AlaNH2 [Example 5] | 10.68 | –
3 | NAc--D-2Nal--D-4ClPhe--D-3Pal--Ser--NMeTyr--D-(4-Atza)Phe--Leu--Lys(Isp)--Pro--D--AlaNH2 [Example 4] | 10.35 | –
4 | CC(=O)N[C@H](Cc1ccc2ccccc2c1)C(=O)N[C@H](Cc1ccc(Cl)cc1)C(=O)N[C@H](Cc1cccnc1)C(=O)N[C@@H](CO)C(=O)N(C)[C@@H](Cc1ccc([N+](=O)[O-])cc1)C(=O)N[C@H](CCCNC(N)=O)C(=O)N[C@@H](CC(C)C)C(=O)N[C@@H](CCCNC(=N)N)C(=O)N1CCC[C@H]1C(=O)N[C@H](C)C(N)=O [Example 1, NAc--D-2Nal--D-4ClPhe--D-3Pal--Ser--NMe(4-NO2)Phe--D--Cit--Leu--Arg--Pro--DAlaNH2] (Ac-[d2Nal][dPhe(4-Cl)][d3Pal]S[NMePhe(4-NO2)][dCit]LRP[dA]-NH2) | – | 5.5

— patent US5491217A, “LHRH antagonists having modified aminoacyl residues at positions 5 and 6” (TAP Holding Inc., priority 1994, dated 1996)
